From US7655217B2, “Near infrared imaging agent” (Institut fur Diagnosikforschung GmbH, priority 1997, dated 2010)

Key:
[1] = in vivo; cited from earlier work
albumin = albumin (Homo sapiens, UniProt P02768); details: cited from earlier work
[2] = cited from earlier work
tumour LS 174 T = assay: laser-induced fluorescence imaging of tumour-bearing mouse; assay type: in vivo, mouse (Swiss Nude)
Description: 2-[7-[1,3-dihydro-3,3-dimethyl-5-(methoxycarbonyl)-1-(4-sulfobutyl)-2H-indol-2-yliden]-1,3,5-heptatrienyl]-3,3 -dimethyl-5-(methoxycarbonyl)-1-(4-sulfobutyl)-3H-indolium, sodium salt at a dose of 3.8 μmol/kg body weight was applied intravenously to an anaesthetized, tumour-bearing mouse (Swiss Nude; tumour LS 174 T at the right hindleg).
The laser-induced fluorescent images were taken prior to, and at various points in time after, applying the substance with a fluorescence imager (at Physikalisch-Technische Bundesanstalt, Berlin Charlottenburg). Radiation was excited using monochromatic laser light at 740 nm by decoupling the radiation via a fibre optical waveguide system. Exciting radiation below 740 nm was removed using a cutoff filter. The laser-induced fluorescence light above 740 nm was recorded using a CCD camera (Charge Coupled Device), and data was stored in the form of black-and-white images.

Sequence of albumin (P02768 25-609, species assumed): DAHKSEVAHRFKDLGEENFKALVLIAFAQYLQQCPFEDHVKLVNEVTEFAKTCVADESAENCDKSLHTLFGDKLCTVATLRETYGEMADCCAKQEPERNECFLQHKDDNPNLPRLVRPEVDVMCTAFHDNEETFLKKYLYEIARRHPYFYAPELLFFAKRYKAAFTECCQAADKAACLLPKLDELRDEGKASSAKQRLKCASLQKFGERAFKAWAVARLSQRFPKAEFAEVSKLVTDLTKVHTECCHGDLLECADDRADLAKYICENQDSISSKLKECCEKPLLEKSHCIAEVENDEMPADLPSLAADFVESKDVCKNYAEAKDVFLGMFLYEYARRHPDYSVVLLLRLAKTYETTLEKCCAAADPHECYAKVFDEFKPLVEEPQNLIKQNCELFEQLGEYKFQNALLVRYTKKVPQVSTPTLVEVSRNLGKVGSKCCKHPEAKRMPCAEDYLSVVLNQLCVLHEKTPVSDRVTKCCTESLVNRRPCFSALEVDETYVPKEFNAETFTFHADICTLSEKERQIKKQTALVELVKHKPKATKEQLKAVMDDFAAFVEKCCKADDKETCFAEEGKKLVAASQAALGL

Structure (SMILES) | LD50 [1] [mmol/kg] | binding to albumin (albumin) | stability when dissolved ([2]; dissolved) | applicability in saline media ([2]; saline media) | fluorescent intensity distribution (tumour LS 174 T; 30 seconds after i.v. 3.8 μmol/kg body weight, excitation 740 nm) | fluorescent intensity in the tumour as compared with the rest of the body (tumour LS 174 T; 18 hours after i.v. 3.8 μmol/kg body weight) | distribution of the substance in the animal (tumour LS 174 T; up to 1 h after i.v. 3.8 μmol/kg body weight)
CC1(C)C(/C=C/C=C/C=C/C=C2\N(CCCCS(=O)(=O)O)c3ccc4ccccc4c3C2(C)C)=[N+](CCCCS(=O)(=O)[O-])c2ccc3ccccc3c21 [Indocyanine green] | 0.84 | up to 100% | unstable when dissolved | precipitation will occur | – | – | –
COC(=O)c1ccc2c(c1)C(C)(C)C(=CC=CC=CC=CC1=[N+](CCCCS(=O)(=O)O)c3ccc(C(=O)OC)cc3C1(C)C)N2CCCCS(=O)(=O)O.[Na+] [Example 8, 2-[7-[1,3-dihydro-3,3-dimethyl-5-(methoxycarbonyl)-1-(4-sulfobutyl)-2H-indol-2-yliden]-1,3,5-heptatrienyl]-3,3-dimethyl-5-(methoxycarbonyl)-1-(4-sulfobutyl)-3H-indolium, sodium salt] | – | – | – | – | values being increased in the hepatic and pulmonary regions and in the tumour | clearly increased fluorescent intensity | spreads more and more throughout the animal
